Assay results from patent US10206394B2, “Herbicidal compounds” (Syngenta Participations AG, priority 2014, dated 2019).
Like-named read-outs stand apart in the source and are kept apart here.

Assays:
Experiment in all cases: Glasshouse assay for herbicidal activity (pre- and post-emergence), percentage phytotoxicity
Assay type in all cases: in vivo
[1] = test system: Echinochloa crus-galli (ECHCG); settings: Echinochloa crus-galli
Outline: (§1)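 Damage was rated visually as percent phytotoxicity, 100% meaning total kill, 20 days after pre-emergence application (made one day post-sowing) or 15 days after post-emergence application (made about 12 days post-sowing). Plants were grown under 16 h light, 65% humidity, warm species 24/18° C, cool 20/16° C.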

[2] = test system: Lolium perenne (LOLPE); settings: Lolium perenne
Outline: as §1

[3] = test system: Avena fatua (AVEFA); settings: Avena fatua
Outline: as §1

[4] = test system: Alopecurus myosuroides (ALOMY); settings: Alopecurus myosuroides
Outline: as §1

[5] = post-emergence, 360 h, POST-emergence, rate 250 g/ha, visual score 15 DAA (100%=total damage, 0%=no damage), read-out: Post-emergence herbicidal activity (percentage phytotoxicity) ECHCG POST
[6] = pre-emergence, 480 h, PRE-emergence, rate 250 g/ha, visual score 20 DAA (100%=total damage, 0%=no damage), read-out: Pre-emergence herbicidal activity (percentage phytotoxicity) ECHCG PRE
[7] = post-emergence, 360 h, POST-emergence, rate 250 g/ha, visual score 15 DAA (100%=total damage, 0%=no damage), read-out: Post-emergence herbicidal activity (percentage phytotoxicity) LOLPE POST
[8] = pre-emergence, 480 h, PRE-emergence, rate 250 g/ha, visual score 20 DAA (100%=total damage, 0%=no damage), read-out: Pre-emergence herbicidal activity (percentage phytotoxicity) LOLPE PRE
[9] = post-emergence, 360 h, POST-emergence, rate 250 g/ha, visual score 15 DAA (100%=total damage, 0%=no damage), read-out: Post-emergence herbicidal activity (percentage phytotoxicity) AVEFA POST
[10] = pre-emergence, 480 h, PRE-emergence, rate 250 g/ha, visual score 20 DAA (100%=total damage, 0%=no damage), read-out: Pre-emergence herbicidal activity (percentage phytotoxicity) AVEFA PRE
[11] = post-emergence, 360 h, POST-emergence, rate 250 g/ha, visual score 15 DAA (100%=total damage, 0%=no damage), read-out: Post-emergence herbicidal activity (percentage phytotoxicity) ALOMY POST
[12] = pre-emergence, 480 h, PRE-emergence, rate 250 g/ha, visual score 20 DAA (100%=total damage, 0%=no damage), read-out: Pre-emergence herbicidal activity (percentage phytotoxicity) ALOMY PRE
[13] = post-emergence, 360 h, Rate 250 g/ha, post-emergence, assessed visually 15 DAA, 100%=total damage, 0%=no damage, read-out: Post-emergence herbicidal activity (percentage phytotoxicity) ECHCG POST
[14] = pre-emergence, 480 h, Rate 250 g/ha, pre-emergence, assessed visually 20 DAA, 100%=total damage, 0%=no damage, read-out: Pre-emergence herbicidal activity (percentage phytotoxicity) ECHCG PRE
[15] = post-emergence, 360 h, Rate 250 g/ha, post-emergence, assessed visually 15 DAA, 100%=total damage, 0%=no damage, read-out: Post-emergence herbicidal activity (percentage phytotoxicity) LOLPE POST
[16] = pre-emergence, 480 h, Rate 250 g/ha, pre-emergence, assessed visually 20 DAA, 100%=total damage, 0%=no damage, read-out: Pre-emergence herbicidal activity (percentage phytotoxicity) LOLPE PRE
[17] = post-emergence, 360 h, Rate 250 g/ha, post-emergence, assessed visually 15 DAA, 100%=total damage, 0%=no damage, read-out: Post-emergence herbicidal activity (percentage phytotoxicity) AVEFA POST
[18] = pre-emergence, 480 h, Rate 250 g/ha, pre-emergence, assessed visually 20 DAA, 100%=total damage, 0%=no damage, read-out: Pre-emergence herbicidal activity (percentage phytotoxicity) AVEFA PRE
[19] = post-emergence, 360 h, Rate 250 g/ha, post-emergence, assessed visually 15 DAA, 100%=total damage, 0%=no damage, read-out: Post-emergence herbicidal activity (percentage phytotoxicity) ALOMY POST
[20] = pre-emergence, 480 h, Rate 250 g/ha, pre-emergence, assessed visually 20 DAA, 100%=total damage, 0%=no damage, read-out: Pre-emergence herbicidal activity (percentage phytotoxicity) ALOMY PRE

Row | SMILES | pest or weed control at 250 g/ha [1, 5] | pest or weed control at 250 g/ha [1, 6] | pest or weed control at 250 g/ha [2, 7] | pest or weed control at 250 g/ha [2, 8] | pest or weed control at 250 g/ha [3, 9] | pest or weed control at 250 g/ha [3, 10] | pest or weed control at 250 g/ha [4, 11] | pest or weed control at 250 g/ha [4, 12] | pest or weed control at 250 g/ha [1, 13] | pest or weed control at 250 g/ha [1, 14] | pest or weed control at 250 g/ha [2, 15] | pest or weed control at 250 g/ha [2, 16] | pest or weed control at 250 g/ha [3, 17] | pest or weed control at 250 g/ha [3, 18] | pest or weed control at 250 g/ha [4, 19] | pest or weed control at 250 g/ha [4, 20] | also measured
1 | C=C(C)CNC(=O)CC1CC(=O)C(c2c(C)cc(-c3ncc(F)cn3)cc2C)C1=O (stereo not shown) [Compound B278] | 100% | 100% | 90% | 100% | 100% | 100% | 100% | 100% |  |  |  |  |  |  |  |  | 
2 | Cc1cc(C)c(C2C(=O)CC(CC(=O)NCc3ccc(C)o3)C2=O)c(C)c1 (stereo not shown) [Compound A97] |  |  |  |  |  |  |  |  | 0% | 0% | 70% | 90% | 20% | 0% | 70% | 30% | 
3 | Cc1cc(-n2cc(Cl)cn2)cc(C)c1C1C(=O)CC(CC(=O)N(C)C(C)(C)C)C1=O (stereo not shown) [Compound B229] | 100% | 100% | 70% | 90% | 80% | 90% | 80% | 90% |  |  |  |  |  |  |  |  | 
4 | Cc1cc(-c2ccc(Cl)cn2)cc(C)c1C1C(=O)CC(CC(=O)NCC2CC2)C1=O (stereo not shown) [Compound B362] |  |  |  |  |  |  |  |  |  |  |  |  |  |  |  |  | pest or weed control at 250 g/ha ([1]; post-emergence, 360 h, Rate 250 g/ha, post-emergence, visual assessment 15 DAA, 100%=total damage, 0%=no damage, read-out: Post-emergence herbicidal activity (percentage phytotoxicity) ECHCG POST): 100%; pest or weed control at 250 g/ha ([1]; pre-emergence, 480 h, Rate 250 g/ha, pre-emergence, visual assessment 20 DAA, 100%=total damage, 0%=no damage, read-out: Pre-emergence herbicidal activity (percentage phytotoxicity) ECHCG PRE): 100%; pest or weed control at 250 g/ha ([2]; post-emergence, 360 h, Rate 250 g/ha, post-emergence, visual assessment 15 DAA, 100%=total damage, 0%=no damage, read-out: Post-emergence herbicidal activity (percentage phytotoxicity) LOLPE POST): 90%; pest or weed control at 250 g/ha ([2]; pre-emergence, 480 h, Rate 250 g/ha, pre-emergence, visual assessment 20 DAA, 100%=total damage, 0%=no damage, read-out: Pre-emergence herbicidal activity (percentage phytotoxicity) LOLPE PRE): 100%; pest or weed control at 250 g/ha ([3]; post-emergence, 360 h, Rate 250 g/ha, post-emergence, visual assessment 15 DAA, 100%=total damage, 0%=no damage, read-out: Post-emergence herbicidal activity (percentage phytotoxicity) AVEFA POST): 100%; pest or weed control at 250 g/ha ([3]; pre-emergence, 480 h, Rate 250 g/ha, pre-emergence, visual assessment 20 DAA, 100%=total damage, 0%=no damage, read-out: Pre-emergence herbicidal activity (percentage phytotoxicity) AVEFA PRE): 100%; pest or weed control at 250 g/ha ([4]; post-emergence, 360 h, Rate 250 g/ha, post-emergence, visual assessment 15 DAA, 100%=total damage, 0%=no damage, read-out: Post-emergence herbicidal activity (percentage phytotoxicity) ALOMY POST): 90%; pest or weed control at 250 g/ha ([4]; pre-emergence, 480 h, Rate 250 g/ha, pre-emergence, visual assessment 20 DAA, 100%=total damage, 0%=no damage, read-out: Pre-emergence herbicidal activity (percentage phytotoxicity) ALOMY PRE): 100%
5 | CC#Cc1cc(C)c(C2C(=O)CC(CC(=O)NC3CCCC3)C2=O)c(C)c1 (stereo not shown) [Compound A62] |  |  |  |  |  |  |  |  | 100% | 100% | 60% | 100% | 90% | 90% | 90% | 100% | 
